Measured values: patent US20220402867A1, “SULFO-SUBSTITUTED BIARYL COMPOUND OR SALT THEREOF, PREPARATION METHOD THEREFOR, AND USE THEREOF” (Shanghai Litedd Co., Ltd., priority 2019, published 2022)
Like-named read-outs stand apart in the source and are kept apart here.

What was measured:
[1] = Metabolic stability in mouse liver microsomes; format: in vitro ADME, CD-1 mice; settings: for half-life: CD-1; for microsomal CLint: CD-1, 0.5 mg protein/mL
Source text: (§1) According to standard methods of in vitro metabolic stability studies in the art, eg., the methods described in Kerns, Edward H. and Di Li (2008). Drug-like Properties: Concepts, Structure Design and Methods: from ADME to Toxicity Optimization. San Diego: Academic Press; Di, Li et al., Optimization of a Higher Throughput Microsomal Stability Screening Assay for Profiling Drug Discovery Candidates, J. Biomol. Screen. 2003, The method described in 8(4), 453, the liver microsomal metabolic stability test of the compounds of the present disclosure was carried out analogously as follows.
(§2) The incubation system contained 0.5 mg protein/mL microsomes, cofactors, and PBS, was pre-incubated at 37° C. for 3 min, and then added the substrate (i.e., the test compounds) to initiate the reaction. Samples were taken at 0, 1, 5, 10, 15, 20, 30 and 60 min from the start of the reaction, and an appropriate terminator was added to terminate the reaction.
(§3) The terminator was an ice acetonitrile solution containing 100 ng/mL tolbutamide and 100 ng/mL labetalol.
(§4) Sample treatment (n=3): each appropriate sample was added, vortexed and centrifuged at high speed. The supernatants were collected, and the substrate was detected by HPLC-MS/MS. The peak area at the 0 min was taken as 100%. The peak areas at other time points were converted to percentage of the remaining amount. The natural logarithms of the percentage of remaining amount at each time point was plotted against the incubation time, and the slope (−k) was calculated by linear regression. Then, Clint (uL/min/mg) and half-life (T½, min) of the compounds were calculated following the equation of the inherent clearance rate (Clint)=(k* volume of incubation solution)/mass of liver microsomes.

[2] = Metabolic stability in human liver microsomes; format: in vitro ADME; settings: for microsomal CLint: 0.5 mg protein/mL
Source text: as §1, §2, §3, §4

[3] = target: T1, RORγt (RORγ-LBD chimeric receptor) (Homo sapiens, UniProt P51449); experiment: Luciferase reporter gene assay of RORγt agonistic activity in HEK293T cells; format: cell-based; design: Emax: dose or concentration left out as unconfirmed; settings: for Emax: HEK-293T
T1 construct: host or cells: HEK293T
T1 sequence (P51449 269-508 limits assumed): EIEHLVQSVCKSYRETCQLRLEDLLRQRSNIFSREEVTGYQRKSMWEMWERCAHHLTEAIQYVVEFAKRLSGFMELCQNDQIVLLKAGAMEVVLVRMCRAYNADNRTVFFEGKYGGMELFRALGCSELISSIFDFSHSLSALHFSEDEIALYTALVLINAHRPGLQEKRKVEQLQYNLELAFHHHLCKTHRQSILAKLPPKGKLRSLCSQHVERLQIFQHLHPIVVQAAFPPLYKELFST
Source text: This assay was basically carried out according to the method described in the literature ONCOIMMUNOLOGY, 2016, VOL. 5, NO. 12, e1254854.
The RORγ-LBD coding sequence was inserted into pBIND plasmid (Promega, E1581). This expression vector and a reporter vector (pGL4.35 carrying a stably integrated luciferase reporter gene driven by GAL4 promoter) were co-expressed in HEK293T host cells. When the agonist binds to the corresponding chimeric receptor, the chimeric receptor binds to the GAL4 binding site on the reporter gene carrier and stimulates reporter gene expression. The agonistic activity of the compound on RORγ was determined according to the intensity of the chemiluminescence signal.
1.1 All test compounds were serially diluted at 3-fold dilution with DMSO, with 10 serial dilutions starting from 10 mM; LIT-00093 solution was prepared similarly. […] 1.4 The compound plate was sealed and shaken for 5 min.
Cells were cultured according to ATCC standard operation, and 6*10^6 HEK293T cells were seeded into 100 mm cell culture dishes, cultured overnight in a 37° C., 5% CO2 incubator, and then transfected. Compounds of corresponding concentrations were added for treatment, and the Steady-Glo™ kit (Lot E 2520) was used for further detection.
Chemiluminescence values were detected with Envision 2104; EC50 values were calculated.
% Activity was calculated with the following equation: […]
RLU: […] R L Upositive: average value of positive control R L Uvehicle: average value of negative control
The log values of the compound concentration and % Activity were fitted using Graphad 8.0, to calculate EC50s of the compounds.

[4] = tested on: human PBMC (Th17 cells); experiment: Th17 differentiation and IL-17 secretion in human PBMC; format: cell-based; settings: IL-17 ELISA after 48 hours; for Emax: maximum activation rate
Description: Test procedure: PBMC cells were first thawed and plated, and then stimulated with stimulating factors (anti-hCD28: 5 μg/mL; rhTGF-β1: 5 ng/mL; rhIL-6: 20 ng/mL; rhIL-23: 10 ng/Ml) to differentiate to Th17, while adding different concentrations of compounds. All test compounds were serially diluted at 3-fold dilution with DMSO, with 8 serial dilutions starting from the maximum concentration 3 μM. The supermatants were collected after 48 hours for IL-17 ELISA detection, and compared with the solvent group, to determine the activation rate of the compounds on Th17 cells to secrete IL-17. EC50 values were fitted with Graphad8.0, and the TOP values fitted by the software was Emax %.

[5] = Pharmacokinetic (PK) assay in mice; format: in vivo; settings: CD-1 mice; for AUC(0-t) / Cmax / half-life / Vd / bioavailability: mouse, plasma; for Vd: values marked *, read-out: Vss; for bioavailability: Po 5 mg/kg vs IV 1 mg/kg
Description: The PK of each compound was determined as follows: 6 CD-1 mice (obtained from Shanghai Lingchang Biotechnology Co., Ltd.) were divided into two groups, 3 mice in each group. One group was administered intravenously at a dose of 1 mg/kg, and the vehicle was 5% DMSO/40% PEG400/55% (20% 3-CD); one group was administered by oral gavage at a dose of 5 mg/kg, and the vehicle was DMSO/1% methylcellulose (1:99). Blood samples were collected from saphenous vein of lower leg in each group at 0, 0.083, 0.25, 0.5, 1, 2, 4, 6, 8 and 24 h after administration. Approximately 40 μL of the blood samples were collected into anticoagulant tubes containing EDTA-K2. Immediately after collection, the tubes were inverted at least 5 times to ensure uniform mixing, and then placed on ice. The blood samples collected at each time point were centrifuged at 4° C., 8000 rpm for 5 minutes to obtain plasma. Another 1.5 mL centrifuge tube was marked with the compound name, animal number, and time point, and the plasma was transferred to this tube. The plasma was stored at −80° C. until analysis.
Compound concentrations in plasma were determined by UPLC-MS/MS method, and the pharmacokinetic parameters were calculated by Phoenix WinNolin 6.4 pharmacokinetic software on the obtained data.

[6] = target: T2, GST-RORγ LBD (263-509) (Homo sapiens, UniProt P51449); experiment: TR-FRET assay of agonistic activity on RORγ receptor; format: biochemical
T2 construct: GST-RORγ LBD ((263-509) (produced at ChemPartner))
T2 sequence (P51449 263-509): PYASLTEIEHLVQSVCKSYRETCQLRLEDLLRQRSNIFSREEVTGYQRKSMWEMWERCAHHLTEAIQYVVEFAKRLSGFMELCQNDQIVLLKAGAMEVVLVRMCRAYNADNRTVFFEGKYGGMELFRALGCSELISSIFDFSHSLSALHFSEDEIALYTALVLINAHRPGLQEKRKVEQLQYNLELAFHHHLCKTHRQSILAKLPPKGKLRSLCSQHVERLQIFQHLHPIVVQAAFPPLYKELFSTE
Description: A time-resolved fluorescence resonance energy transfer (TR-FRET) assay was used for the compounds of the present disclosure, to determine the agonistic activity of the compounds on the RORγ protein receptor. The agonistic activity is expressed by the concentration for 50% of maximal effect (EC50). The experiment was performed basically with reference to the methods described in ONCOIMMUNOLOGY, 2016, VOL. 5, NO. 12, e1254854.
1. Preparation of RORγ Basal Buffer
A 100 mL basal buffer was prepared, mixed homogeneously and stored for use;
The compounds of the examples shown in the table below were prepared into solutions with DMSO as the solvent, serially diluted at 3-fold dilution to 10 concentrations starting from 10 mM, and added to the corresponding wells of a 384-well plate with each concentration of each compound in duplicate;
a. A 75 nM solution of GST-RORγ LBD ((263-509) (produced at ChemPartner)) and a 4 nM solution of Biotin-SRC1 (Glsbiochem) were prepared with the above basal buffer. The two solutions were 1:1 mixed evenly, and 10 μL of the mixed solution was added into each well of the above 384-well plate. The plate was immediately centrifugated at 1000 rpm for 10 seconds; b. A 1 nM solution of Anti-GST Eu (Cisbio, #61GSTKLA) and a 50 nM solution of SA-APC (Cisbio, […]) were prepared with the above basal buffer. The two solutions were 1:1 mixed evenly, and 10 μL of the mixed solution was added into each well of the above 384-well plate. The plate was immediately centrifugated at 1000 rpm for 10 seconds; c. The resulting 384-well plate was incubated at room temperature for 15 minutes. Data were read on an Envision microplate reader, EC50 values and E max % were calculated.
a. Readings were taken at 665 nm and 615 nm wavelengths respectively on the Envision Microplate Reader, and the ratios between them were normalized. b. Calculation was carried out with the following equation: […]
wherein X is the reading of compounds, Min is the reading of the blank solution, and Max is the reading of 10 μM SRC. c. The concentration-response curve data were fitted by a four-parameter logistic nonlinear regression model, and Emax was the TOP value of the fitted curve.

[7] = HEK293T, GAL4 luciferase reporter, read-out: EC50

Compound	% Remaining (T = 60 min) [1]	half-life [1]	microsomal CLint [1]	half-life [2]	microsomal CLint [2]	% Remaining (T = 60 min) [2]	EC50 [3, 7]	Emax [3]	EC50 [4]	Emax [4]	AUC(0-t) ([5]; IV 1 mg/kg)	Cmax ([5]; IV 1 mg/kg)	half-life ([5]; IV 1 mg/kg)	Vd ([5]; IV 1 mg/kg)	bioavailability [5]	AUC(0-t) ([5]; Po 5 mg/kg)	Cmax ([5]; Po 5 mg/kg)	half-life ([5]; Po 5 mg/kg)	further results
CCS(=O)(=O)c1ccc(C(COC)C(=O)Nc2cc(Cl)c(-c3ccc(S(C)(=O)=O)cc3)c(Cl)c2)cc1 (centres unmarked) [Example 15, N-(2,6-Dichloro-4′-(methylsulfonyl)-[1,1′-biphenyl]-4-yl)-2-(4-(ethylsulfonyl)phenyl)-3-methoxypropionamide]	82.60%	> 2.42 h	< 9.6 µL/min/mg	1.3 h	17.8 µL/min/mg	58.7%	202 nM	79.5%	45.1 nM	197%	2300 ng·h/mL	1440 ng/mL	1.23 h	0.71 L/kg	40%	4240 ng·h/mL	1060 ng/mL	2.32 h	–
CCS(=O)(=O)c1ccc(-c2c(Cl)cc(NC(=O)C(COC)c3ccc(S(C)(=O)=O)cc3)cc2Cl)cc1 (centres unmarked) [Example 19, N-(2,6-Dichloro-4′-(ethylsulfonyl)-[1,1′-biphenyl]-4-yl)-3-methoxy-2-(4-(methylsulfonyl)phenyl)propionamide]	23.10%	0.487 h	47.4 µL/min/mg	1.78 h	13 µL/min/mg	60%	123 nM	91.4%	32.1 nM	232%	647 ng·h/mL	932 ng/mL	0.63 h	1.09 L/kg	29.7%	924 ng·h/mL	419 ng/mL	1.51 h	CL_obs ([5]; IV 1 mg/kg, values marked **): 26.0** mL/min/kg
COCC(C(=O)Nc1cc(Cl)c(-c2ccc(S(C)(=O)=O)cc2)c(Cl)c1)c1ccc(S(=O)(=O)CC2CC2)cc1 (centres unmarked) [Example 18, 2-(4-((Cyclopropylmethyl)sulfonyl)phenyl)-N-(2,6-dichloro-4′-(methylsulfonyl)-[1,1′-biphenyl]-4-yl)-3-methoxypropionamide]	15.10%	0.402 h	57.6 µL/min/mg	0.192 h	121 µL/min/mg	2%	784 nM	137%	29.4 nM	193%	–	–	–	–	–	–	–	–	–
CCS(=O)(=O)c1ccc(-c2c(Cl)cc(NCC(C(=O)O)c3ccc(S(=O)(=O)CC)cc3)cc2Cl)cc1 (centres unmarked) [Example 12-1, 3-(2,6-Dichloro-4′-(ethylsulfonyl)-[1,1′-biphenyl]-4-amino)-2-(4-(ethylsulfonyl)phenyl)propionic acid]	71%	2.11 h	–	> 2.42 h	< 9.6 µL/min/mg	107.4%	> 3000 nM	–	–	–	–	–	–	–	–	–	–	–	EC50 ([6]; TR-FRET, GST-RORγ LBD with Biotin-SRC1): 6.8 nM; Emax ([6]; maximum activation rate, TOP of fitted curve): 186%
CS(=O)(=O)c1ccc(-c2c(Cl)cc(NC(=O)Cc3ccc(S(=O)(=O)CC4CC4)cc3)cc2Cl)cc1 [Example 17, 2-(4-((Cyclopropylmethyl)sulfonyl)phenyl)-N-(2,6-dichloro-4′-(methylsulfonyl)-[1,1′-biphenyl]-4-yl)acetamide]	15.30%	0.377 h	61.2 µL/min/mg	0.055 h	415 µL/min/mg	0%	–	33.9%	113 nM	295%	–	–	–	–	–	–	–	–	EC50 [3]: 25 nM
